# Laboratory results as given in PubChem BioAssay (NCI).
#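 Exposure lasted 48 hours, with cells grown in 96-well plates and compounds tested at five concentrations. The concentration for full growth arrest is given as TGI.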
# Tests used:
# Test in all cases: NCI anticancer screen, dose series, 48 h
# HCT-15 colon = test system: HCT-15 colon
# HL-60(TB) leukemia = test system: HL-60(TB) leukemia
# HS 578T breast = test system: HS 578T breast
# HT29 colon = test system: HT29 colon
# IGROV1 ovarian = test system: IGROV1 ovarian
# MALME-3M melanoma = test system: MALME-3M melanoma
# OVCAR-5 ovarian = test system: OVCAR-5 ovarian
# SNB-19 CNS = test system: SNB-19 CNS
# UACC-257 melanoma = test system: UACC-257 melanoma
# RXF 393 renal = test system: RXF 393 renal
Structure (SMILES),TGI (HCT-15 colon) [µM],TGI (HL-60(TB) leukemia) [µM],TGI (HS 578T breast) [µM],TGI (HT29 colon) [µM],TGI (IGROV1 ovarian) [µM],TGI (MALME-3M melanoma) [µM],TGI (OVCAR-5 ovarian) [µM],TGI (SNB-19 CNS) [µM],TGI (UACC-257 melanoma) [µM],TGI (RXF 393 renal) [µM]
O=C1c2ccccc2-c2nc(-c3cccnc3)cc3c2c1nc1ccccc13,> 100,> 100,> 100,> 100,> 100,> 100,> 100,> 100,> 100,–
O=C(/C=C/c1ccc(O)c(O)c1)OCCc1cccc2ccccc12,9.64,3.52,–,27.5,14.5,19.5,31.7,28.4,28.2,25.1
COc1cc(/C=C/C(C)=O)ccc1OP(=O)(O)O,> 100,–,> 100,> 100,> 100,> 100,> 100,> 100,> 100,> 100
N#Cc1c(-c2ccccc2)/c(=C\O)c(=O)n2c1nc1ccccc12,> 100,> 100,91.8,> 100,> 100,> 100,> 100,> 100,> 100,> 100
CCOP(=O)(Nc1ccc(-c2ccccc2)cc1)OCC,> 100,–,> 100,> 100,> 100,> 100,> 100,> 100,> 100,> 100
c1ccc(N=C2SC(=NNc3ccccc3)SC2=Nc2ccccc2)cc1,> 100,> 100,> 100,> 100,> 100,> 100,> 100,> 100,> 100,> 100
Cc1nc2c(o1)C(=O)c1ccccc1/C2=N/c1ccccn1,28.4,44.2,41.1,41.3,51.4,25,32.4,28.3,26.9,> 100
CN1CCC2(CC1)C(=O)N(N1CCCCCC1)C(=O)N2c1ccccc1,> 100,> 100,> 100,> 100,> 100,> 100,> 100,> 100,> 100,> 100
COc1cccc2cc(C(N)=O)c(=N)oc12,> 100,> 100,97.5,> 100,> 100,45.9,> 100,> 100,> 100,> 100
C1COC(NC(C2CC2)C2CC2)=N1,> 100,> 100,> 100,> 100,> 100,> 100,> 100,> 100,> 100,> 100
CC(C)OP(=O)(CN(C)/C(F)=N\C(F)(F)F)OC(C)C,> 100,> 100,> 100,> 100,> 100,> 100,> 100,> 100,> 100,> 100
C=C1c2c(cc3c(c2O)c(=O)c2ccccc2n3C)OC1(C)C,> 100,> 100,–,> 100,> 100,> 100,–,> 100,–,–
Cc1ccc(C(=O)C(C)N)cc1 (stereo not given),> 100,> 100,–,> 100,> 100,> 100,> 100,> 100,> 100,> 100
Cc1c(-c2cc3n(n2)C(c2cccs2)C(C#N)=C(c2ccccc2)N3)c(=O)n(-c2ccccc2)n1C (stereo not given),> 100,> 100,–,> 100,> 100,> 100,> 100,> 100,98.7,> 100
CCOP(=O)(/C=C\n1cnc2c(=O)n(C(C)=O)c(N)nc21)OCC,> 100,> 100,–,> 100,> 100,–,> 100,> 100,> 100,> 100
O=C(c1cc(Cl)cc(Cl)c1)N(C(=S)OC12CC3CC(CC(C3)C1)C2)c1ccccc1,> 100,84.5,> 100,> 100,–,> 100,> 100,> 100,> 100,> 100
COC(=O)C(CCC1C=CCC1)N=Cc1ccccc1 (stereo not given),> 100,> 100,> 100,> 100,> 100,–,> 100,> 100,> 100,> 100
CC(=O)C1=C(N=[N+]=[N-])c2cccc3cccc(c23)C1=O,32,–,80.6,39.3,32.6,33.5,54.8,91.7,43.8,28
NNC(=O)CNC(=O)CSc1nnc(COc2ccc(Cl)cc2)n1-c1ccccc1,> 100,> 100,–,> 100,> 100,> 100,> 100,> 100,> 100,> 100
CC(=O)O[C@H]1C[C@]2(C)C(CCC3O[C@@]32C)[C@@]2(CC(c3ccoc3)OC2O)[C@@H]1C (stereo not given in full),> 100,52,> 100,> 100,> 100,–,> 100,> 100,> 100,> 100
O=P(O)(O)C(CSc1ccccc1)P(=O)(O)O,> 100,> 100,–,> 100,> 100,> 100,> 100,> 100,> 100,> 100
COP(C)(=O)/C(Cc1ccccc1)=N\O (stereo not given),> 100,> 100,> 100,> 100,> 100,–,> 100,> 100,> 100,–
